Experimental findings from ChEMBL document CHEMBL3507680, “University of Dundee, Gates Library screen for HepG2 cell viability” are described below.

A short description of the series: Human HepG2 cell viability assay in 384 well format. The format is toxicity, cell-based. Conditions: HepG2 cells, read-out: Inhibition. More on the design: dose 125 nL, time 70.5 hour; cytotoxicity at 70.5 h: concentration not given beside the values.

In the case of `CN(C)c1cc(C(=O)Nc2ccccc2C(=O)NC(C)(C)C)ccn1`, the cytotoxicity at 70.5 h was -2.3%.

`CCNC(=O)Cc1ccc(NC(=O)NC(CC)CC)cc1`: the cytotoxicity at 70.5 h was determined as 1.05%.

As to `Cn1c(C2CCCN2C(=O)CN2CSCC2=O)nc2ccccc21` (stereo not drawn), the cytotoxicity at 70.5 h is -5.23%.

Take `CC(C)COC(=O)N1CCCN(C(=O)c2ccnc(N(C)C)c2)CC1`: the cytotoxicity at 70.5 h is 1.08%.

Turning to `Cc1nc2cc(=O)[nH]n2c(C)c1CC(=O)Nc1cn[nH]c1`, the cytotoxicity at 70.5 h is -2.66%.

Take `CC(NC1(CNC(=O)CC2CCCC2)CCOCC1)c1ccccc1` (stereo not drawn): the cytotoxicity at 70.5 h was -6.24%.

As for `Cc1nc2cc(=O)[nH]n2c(C)c1CNC(=O)c1cnn(C(C)(C)C)c1`, the cytotoxicity at 70.5 h came out at 4.01%.

Consider `CCOC(=O)c1nnc2ccccc2c1N1CCOC(C)(C)C1`, for which the cytotoxicity at 70.5 h turned out to be 16.1%.

In the case of `O=C(NCc1ccc(CN2CCCC2)cc1)NCc1ccon1`, the cytotoxicity at 70.5 h was -3.38%.

As to `CSc1ccc(C(CC(=O)O)NC(=O)c2cc(C)on2)cc1` (stereo not drawn), the cytotoxicity at 70.5 h was found to be 0.955%.

Regarding `CC(NC1(CNC(=O)OC(C)(C)C)CCOCC1)c1ccccc1` (stereo not drawn), the cytotoxicity at 70.5 h was -5.89%.

As for `Cc1cn2c(n1)CCC(NS(=O)(=O)c1cc(C)sc1C)C2` (stereo not drawn), the cytotoxicity at 70.5 h was -3.85%.

In the case of `CC(=O)N1CCN(CCNS(=O)(=O)c2cccc(F)c2)CC1`, the cytotoxicity at 70.5 h is -0.607%.

With `O=C(C1CCCCC1)N1CCC2(CC1)OCCO2`, the cytotoxicity at 70.5 h was -5.09%.

For the molecule `Cc1ncsc1C(=O)Nc1ccccn1`, the cytotoxicity at 70.5 h was -6.03%.

`CC(=O)N1CCN(CCNS(=O)(=O)c2cc(F)cc(F)c2)CC1`: the cytotoxicity at 70.5 h was -0.303%.

As for `CC(C)COCCC(=O)NCCC(=O)N1CCN(c2ccccn2)CC1`, the cytotoxicity at 70.5 h is -2.77%.

Regarding `Cc1nc(C2(NCC(=O)NC(=O)Nc3ccccc3)CCCCC2)no1`, the cytotoxicity at 70.5 h is -0.595%.

For the molecule `Cc1nc(C2(NCC(=O)NCc3cccs3)CCCCC2)no1`, the cytotoxicity at 70.5 h was -2.14%.

As for `Cc1ccc(C(=O)N(C)Cc2ccc(Br)s2)c(=O)[nH]1`, the cytotoxicity at 70.5 h was 2.28%.

As for `CC(C)Cc1cc(C(=O)NC(C)C)[nH]n1`, the cytotoxicity at 70.5 h was -4.46%.

Consider `NC(=O)C(CNC(=O)CCc1ccccc1)Cc1ccc(F)cc1` (stereo not drawn), for which the cytotoxicity at 70.5 h was -2.33%.

For `CC(=O)N1CCN(CCNS(=O)(=O)c2c(F)cccc2F)CC1`, the cytotoxicity at 70.5 h was -5.97%.

With `CCc1ccc(C(=O)N2CCC(c3nncn3CC)CC2)o1`, the cytotoxicity at 70.5 h was -6.22%.

As to `O=C(NCCCNC(=O)c1ccccc1)Nc1ccc(F)cc1F`, the cytotoxicity at 70.5 h was -4.28%.

`CCn1cnnc1C1CCN(C(=O)c2ccc3c(c2)nnn3C)CC1`: the cytotoxicity at 70.5 h was 22.3%.

For `CCn1cnnc1C1CCN(C(=O)c2cccc(N(C)C)c2)CC1`, the cytotoxicity at 70.5 h was determined as 1.66%.

In the case of `CC(C)NC(=O)NCC(Cc1ccc(F)cc1)C(N)=O` (stereo not drawn), the cytotoxicity at 70.5 h was 21.5%.

For `CC(C)S(=O)(=O)CC(=O)NCC(Cc1ccc(F)cc1)C(N)=O` (stereo not drawn), the cytotoxicity at 70.5 h is 1.75%.

As to `Cc1cnc(CN(C)C2CCCN(c3cccnn3)C2)cn1` (stereo not drawn), the cytotoxicity at 70.5 h was -0.507%.

For `CC(c1nc(C(C)(C)C)no1)N1CCN(C(=O)CN2CCOCC2)CC1` (stereo not drawn), the cytotoxicity at 70.5 h was -6.71%.

In the case of `Cc1ncc(CNC2CCc3nc(C(C)C)nn3C2)s1` (stereo not drawn), the cytotoxicity at 70.5 h was determined as 1.67%.

Take `Cc1cc(CNC2CCc3nc(C(C)C)nn3C2)on1` (stereo not drawn): the cytotoxicity at 70.5 h was -5.91%.

Take `O=C(CCS(=O)(=O)C1CCCC1)N1CCCC1c1ccsc1` (stereo not drawn): the cytotoxicity at 70.5 h is -4.99%.

For `Cc1ccc(NC(=O)CNc2cccc(C(N)=O)c2C)c(C)c1`, the cytotoxicity at 70.5 h turned out to be 33.2%.

In the case of `COc1ccc(C2CCCN2Cc2nnnn2C2CC2)cc1OC` (stereo not drawn), the cytotoxicity at 70.5 h was -0.63%.

Consider `CN(Cc1ccncc1)C(=O)NC1CCS(=O)(=O)C1` (stereo not drawn), for which the cytotoxicity at 70.5 h was -3.72%.

`Cc1csc(CCNC(=O)Nc2cc(C(F)(F)F)c[nH]c2=O)n1`: the cytotoxicity at 70.5 h is -1.34%.

On to `COCCOCCNC(=O)c1cccc(Cn2nc(C)cc2C)c1`, for which the cytotoxicity at 70.5 h was found to be 34.2%.

Turning to `Cc1nc(CNC(=O)Nc2cc(C(F)(F)F)c[nH]c2=O)cs1`, the cytotoxicity at 70.5 h turned out to be 1.62%.

`CC(C)CN1CCC(NC(=O)c2ccc(Cl)cc2Cl)CC1`: the cytotoxicity at 70.5 h was -1.21%.

Take `CCOCCNC(=O)c1cccc(Cn2nc(C)cc2C)c1`: the cytotoxicity at 70.5 h was -7.21%.

With `N#CCCCOc1cccnc1NC(=O)CCC1CCCC1`, the cytotoxicity at 70.5 h was -0.625%.

Take `CCc1nnc2n1CCN(C(=O)c1ccc(C)c(S(N)(=O)=O)c1)C2`: the cytotoxicity at 70.5 h was -1.49%.

For `O=C(CN1CCCC1Cn1cncn1)Nc1nccs1` (stereo not drawn), the cytotoxicity at 70.5 h was -7%.

On to `COc1ccc(CNCCc2cc(F)cc3c2OCOC3)cc1OC`, for which the cytotoxicity at 70.5 h worked out at 2.03%.

Turning to `CCN(CC)C(=O)CNC(=O)c1ccc(-c2ccsc2)nc1C`, the cytotoxicity at 70.5 h came to 59.9%.

Consider `Cc1cnn(CC2CN(CC(=O)Nc3cccnc3)CCO2)c1` (stereo not drawn), for which the cytotoxicity at 70.5 h is -4.29%.

Take `Cc1nc(CN2CCC(N(C)Cc3noc(C(C)C)n3)C2)oc1C` (stereo not drawn): the cytotoxicity at 70.5 h was 10.7%.

With `CCc1cnc(CN(C)C2CCN(CCNS(=O)(=O)CC)C2)o1` (stereo not drawn), the cytotoxicity at 70.5 h was 2.11%.

Take `CCc1cnc(CN(C)C2CCN(CC3CCOCC3)C2)o1` (stereo not drawn): the cytotoxicity at 70.5 h was 4.66%.

As to `CCCc1n[nH]c(C2CN(C(=O)CCCn3ccnc3)CCO2)n1` (stereo not drawn), the cytotoxicity at 70.5 h was -0.218%.

On to `Fc1ccc(CNCCn2cccn2)c(F)c1`, for which the cytotoxicity at 70.5 h was 21.2%.

For `Cc1ccc(C(=O)N2CCCC2c2nnc3n2CCCCC3)s1` (stereo not drawn), the cytotoxicity at 70.5 h worked out at 8.9%.

As to `Cc1cc(C(=O)N2CCCC2c2nnc3n2CCCCC3)on1` (stereo not drawn), the cytotoxicity at 70.5 h was -2.64%.

As to `CCCOc1cc(C)ccc1NC(=O)NCCNC(=O)C(C)C`, the cytotoxicity at 70.5 h came to 25.7%.

Regarding `Cc1nn(C)c(C)c1CCC(=O)N(C)Cc1ccc(C#N)cc1`, the cytotoxicity at 70.5 h was 1.66%.

With `O=C(c1ccc(Cl)o1)N1CCCC1c1nnc2n1CCCCC2` (stereo not drawn), the cytotoxicity at 70.5 h came out at 1.9%.

Take `Cc1ncncc1C(=O)NCCN1CCC(C)CC1`: the cytotoxicity at 70.5 h was 5.52%.

Turning to `Cc1nn(C)c(N2CCOCC2)c1CNC(C(N)=O)c1ccccc1` (stereo not drawn), the cytotoxicity at 70.5 h is 4.26%.

In the case of `CS(=O)(=O)N1CCC(Oc2ccc(C#N)cc2)CC1`, the cytotoxicity at 70.5 h is 7.19%.

In the case of `CN(C)C(=O)c1cnc(-c2ccc3c(c2)OCO3)s1`, the cytotoxicity at 70.5 h is 6.77%.

On to `CC(C)N(CC(N)=O)C(=O)c1cnc(-c2ccc3c(c2)OCO3)s1`, for which the cytotoxicity at 70.5 h was 5.92%.

For `CC(C)c1nnc2n1CC(CNCc1nc3ccccc3s1)CC2` (stereo not drawn), the cytotoxicity at 70.5 h was 21.9%.

For `COc1ccc(CN(C)C(=O)Cc2c(C)nn(C)c2C)cc1F`, the cytotoxicity at 70.5 h was 2.24%.

On to `COc1ccc(C2CCCCCN2S(C)(=O)=O)cc1` (stereo not drawn), for which the cytotoxicity at 70.5 h was found to be 1.84%.

Take `CCS(=O)(=O)CCN1CCC(N(C)Cc2ncc(C)o2)C1` (stereo not drawn): the cytotoxicity at 70.5 h came to 0.306%.

With `CCc1n[nH]c(C2CN(C(=O)CCCn3cccn3)CCO2)n1` (stereo not drawn), the cytotoxicity at 70.5 h came out at 2.59%.

On to `Cc1ccc(NCCCNC(=O)NCC2CCS(=O)(=O)C2)nc1` (stereo not drawn), for which the cytotoxicity at 70.5 h is -17.4%.

Regarding `Cc1ccc(-c2nnc(CN3CC(n4cc(C)cn4)C3)o2)cc1`, the cytotoxicity at 70.5 h is -13.9%.

`NC(=O)c1cccc(CNC/C=C/c2ccccc2)c1`: the cytotoxicity at 70.5 h worked out at 12.6%.

In the case of `COC(=O)NCC(=O)NC(c1ccc(Cl)cc1)C(F)(F)F` (stereo not drawn), the cytotoxicity at 70.5 h is -8.75%.

For `Cc1cc(-c2noc(C3CCS(=O)(=O)C3)n2)ccc1F` (stereo not drawn), the cytotoxicity at 70.5 h is -11%.

Take `NC(=O)C1CN(C(=O)NCC2(c3ccc(F)cc3)CCC2)CCO1` (stereo not drawn): the cytotoxicity at 70.5 h stood at 1.35%.

With `O=C(NCC1(c2ccc(F)cc2)CC1)N1CCC2(CCOC2)C1` (stereo not drawn), the cytotoxicity at 70.5 h was determined as 13.9%.

Regarding `CN(CCNS(C)(=O)=O)CC(c1cccs1)N1CCOCC1` (stereo not drawn), the cytotoxicity at 70.5 h is -8.66%.

On to `CC(C)N(CCNCc1ccc(C#N)cc1)C1CC1`, for which the cytotoxicity at 70.5 h was 17.7%.

On to `O=C(NCC1(c2ccc(F)cc2)CCC1)N1CCC2(C1)OCCO2`, for which the cytotoxicity at 70.5 h is -8.6%.

With `CCc1sc(-c2nnc(CNC(C)Cn3cc(C)cn3)o2)cc1C` (stereo not drawn), the cytotoxicity at 70.5 h was 5.1%.

Consider `CCc1sc(-c2nnc(CNC(C)Cn3cccn3)o2)cc1C` (stereo not drawn), for which the cytotoxicity at 70.5 h was -11.3%.

Turning to `Cc1cnn(C2CN(Cc3nnc(Cc4ccccc4)o3)C2)c1`, the cytotoxicity at 70.5 h was -13.1%.

In the case of `CN(C)C(=O)CNC(CC(F)(F)F)c1ccc(F)cc1` (stereo not drawn), the cytotoxicity at 70.5 h came out at 7.18%.

For `COCC1CCCN(C(=O)c2ccccc2NCc2cccnc2)C1` (stereo not drawn), the cytotoxicity at 70.5 h amounted to 3.32%.

Regarding `OCCCN(CCc1cccc(F)c1)C1CC1`, the cytotoxicity at 70.5 h is -4.09%.

As to `CN(C)c1nc(N)nc(CN2CCCC2c2cccs2)n1` (stereo not drawn), the cytotoxicity at 70.5 h is 0.514%.

Take `NC(=O)NC(=O)CCSCc1coc(-c2ccc(F)cc2)n1`: the cytotoxicity at 70.5 h was -3.5%.

Take `Cn1c2ncccc2c(=O)n1CC(=O)Nc1ccc(F)c(F)c1`: the cytotoxicity at 70.5 h was -3.2%.

As to `Cc1cccc(-n2cnc(Cl)c2C(=O)O)c1`, the cytotoxicity at 70.5 h is -16.5%.

As to `COCCOc1ccc(CNc2nc3ccccc3nc2N)cn1`, the cytotoxicity at 70.5 h is -3.46%.

As to `O=C(O)c1ccnc(SCC(F)(F)F)c1`, the cytotoxicity at 70.5 h was -10.8%.

In the case of `Cn1c2ncccc2c(=O)n1CC(=O)NCCc1c(F)cccc1F`, the cytotoxicity at 70.5 h is -7.19%.

For `O=C(NC1CCCN(c2ccccc2Cl)C1)c1ccc(=O)[nH]n1` (stereo not drawn), the cytotoxicity at 70.5 h is -12.6%.

Take `Cc1nnc(SC2CCN(c3sccc3C#N)C2=O)[nH]1` (stereo not drawn): the cytotoxicity at 70.5 h was -9.17%.

Take `Cc1cc(CCC(=O)NCc2ncc[nH]2)ccc1Br`: the cytotoxicity at 70.5 h is -0.138%.

`Cc1nnc(SC2CCN(c3sccc3C#N)C2=O)s1` (stereo not drawn): the cytotoxicity at 70.5 h is 24.5%.

For the molecule `Cc1cc(CCC(=O)NCc2nccn2C)ccc1Br`, the cytotoxicity at 70.5 h amounted to 1.59%.

Consider `CN1CCN(C(=O)c2cc[nH]c(=O)c2)Cc2ccccc21`, for which the cytotoxicity at 70.5 h worked out at 1.93%.

`N#Cc1ccsc1N1CCC(Sc2ccncc2)C1=O` (stereo not drawn): the cytotoxicity at 70.5 h was -7.07%.

As to `Cc1cc(=O)[nH]cc1C(=O)N1Cc2ccccc2N(C)CC1C` (stereo not drawn), the cytotoxicity at 70.5 h is 26%.

In the case of `CC1(C)CN=C(N2CCN(CC3CCOC3)CC2)S1` (stereo not drawn), the cytotoxicity at 70.5 h is -12.3%.

In the case of `Cc1nn(C)c(C)c1C(=O)N1CCN(c2ccncc2Cl)CC1`, the cytotoxicity at 70.5 h was -6.89%.

As to `CC(C)(CO)CCCNC(=O)NC1(C)Cc2ccccc2C1`, the cytotoxicity at 70.5 h is -0.326%.

As to `COC1CCN(C(=O)c2ccccc2NCc2cccnc2)CC1`, the cytotoxicity at 70.5 h was -2.63%.
